Reference: ChEMBL document CHEMBL1138972, “Discovery of potent CRTh2 (DP2) receptor antagonists” (Bioorg Med Chem Lett, 2006)
The source made the active and inactive calls. The calls are words filed in the database; no cut-off is given here.

Columns and labels:
[1] = molecular target: Voltage-gated inwardly rectifying potassium channel KCNH2 (Homo sapiens, UniProt Q12809); test: Binding affinity to hERG in HEK293 cells by radioligand binding assay; type: cell-based
[2] = molecular target: T1, Prostaglandin D2 receptor 2 (Homo sapiens) (UniProt Q9Y5Y4); test: Agonist activity at CRTh2 receptor; type: functional
T1 sequence (whole entry): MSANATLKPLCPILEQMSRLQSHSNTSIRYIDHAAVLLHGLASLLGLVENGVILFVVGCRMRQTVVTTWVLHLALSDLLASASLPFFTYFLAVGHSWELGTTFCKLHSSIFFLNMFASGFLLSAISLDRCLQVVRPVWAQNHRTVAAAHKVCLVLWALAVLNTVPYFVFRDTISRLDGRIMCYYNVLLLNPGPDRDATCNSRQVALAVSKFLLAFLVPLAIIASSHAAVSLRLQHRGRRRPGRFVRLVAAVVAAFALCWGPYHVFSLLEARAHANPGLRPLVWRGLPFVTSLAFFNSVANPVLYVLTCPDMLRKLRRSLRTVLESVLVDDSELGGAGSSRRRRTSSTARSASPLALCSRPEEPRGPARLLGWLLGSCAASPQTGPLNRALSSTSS

[3] = molecular target: T2, Prostaglandin D2 receptor (Homo sapiens) (UniProt Q13258); test: Binding affinity to DP1 receptor in HEK293 cells by radioligand binding assay; type: cell-based
T2 sequence (whole entry): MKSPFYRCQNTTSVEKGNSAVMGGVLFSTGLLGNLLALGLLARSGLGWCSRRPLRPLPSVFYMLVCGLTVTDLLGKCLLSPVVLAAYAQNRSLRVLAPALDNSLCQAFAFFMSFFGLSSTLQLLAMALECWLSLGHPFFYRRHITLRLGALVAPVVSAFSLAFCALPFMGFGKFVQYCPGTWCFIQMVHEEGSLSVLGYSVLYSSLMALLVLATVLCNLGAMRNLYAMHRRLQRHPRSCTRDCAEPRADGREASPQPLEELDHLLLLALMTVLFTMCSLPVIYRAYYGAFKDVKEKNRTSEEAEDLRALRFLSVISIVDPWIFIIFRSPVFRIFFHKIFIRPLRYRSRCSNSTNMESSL

[4] = molecular target: T3, Prostaglandin D2 receptor 2 (Homo sapiens, UniProt Q9Y5Y4); test: Displacement of [3H]PGD2 from human CRTh2 expressed in HEK293 cells; type: cell-based
T3 sequence (Q9Y5Y4 whole entry): T1 sequence (whole entry)

[5] = physchem; conditions: buffer, pH 7.4
Description: Lipophilicity, LogD at pH 7.4

[6] = species on record: Homo sapiens; test: Protein binding in human plasma; conditions: read-out: PPB (converted)
[7] = Intrinsic clearance in human hepatocytes per 10^6 cells
[8] = Intrinsic clearance in rat hepatocytes per 10^6 cells
[9] = species on record: Rattus norvegicus; test: (§1) Volume of distribution in rat; type: ADME, organism-based; conditions: in vivo
[10] = species on record: Rattus norvegicus; test: (§2) Half life in rat; type: ADME, organism-based; conditions: in vivo
[11] = Bioavailability in rat; type: ADME, organism-based; conditions: in vivo
[12] = Protein binding in rat plasma; type: ADME, cell-free; conditions: read-out: PPB (converted)
[13] = Clearance in dog; type: ADME, organism-based, Canis lupus familiaris; conditions: in vivo
[14] = Bioavailability in dog; type: ADME, organism-based, Canis lupus familiaris; conditions: in vivo
[15] = Half life in dog; type: ADME, organism-based, Canis lupus familiaris; conditions: in vivo
[16] = Volume of distribution in dog; type: ADME, organism-based, Canis lupus familiaris; conditions: in vivo, read-out: Vss
[17] = molecular target: Cytochrome P450 2C19 (Homo sapiens, UniProt P33261); test: Inhibition at recombinant human CYP2C19; type: ADME
[18] = molecular target: Cytochrome P450 2C9 (Homo sapiens, UniProt P11712); test: Inhibition at CYP2C9; type: ADME
[19] = molecular target: Aldo-keto reductase family 1 member B1 (Rattus norvegicus, UniProt P07943); test: Inhibition at rat aldose reductase
[20] = molecular target: Sodium-dependent serotonin transporter (Rattus norvegicus, UniProt P31652); test: Inhibition at rat serotonin transporter
[21] = molecular target: Prostaglandin G/H synthase 1 (Homo sapiens, UniProt P23219); test: Inhibition of COX1
[22] = molecular target: T4, Prostaglandin G/H synthase 2 (Homo sapiens, UniProt P35354); test: Inhibition of COX2
T4 sequence (P35354 whole entry): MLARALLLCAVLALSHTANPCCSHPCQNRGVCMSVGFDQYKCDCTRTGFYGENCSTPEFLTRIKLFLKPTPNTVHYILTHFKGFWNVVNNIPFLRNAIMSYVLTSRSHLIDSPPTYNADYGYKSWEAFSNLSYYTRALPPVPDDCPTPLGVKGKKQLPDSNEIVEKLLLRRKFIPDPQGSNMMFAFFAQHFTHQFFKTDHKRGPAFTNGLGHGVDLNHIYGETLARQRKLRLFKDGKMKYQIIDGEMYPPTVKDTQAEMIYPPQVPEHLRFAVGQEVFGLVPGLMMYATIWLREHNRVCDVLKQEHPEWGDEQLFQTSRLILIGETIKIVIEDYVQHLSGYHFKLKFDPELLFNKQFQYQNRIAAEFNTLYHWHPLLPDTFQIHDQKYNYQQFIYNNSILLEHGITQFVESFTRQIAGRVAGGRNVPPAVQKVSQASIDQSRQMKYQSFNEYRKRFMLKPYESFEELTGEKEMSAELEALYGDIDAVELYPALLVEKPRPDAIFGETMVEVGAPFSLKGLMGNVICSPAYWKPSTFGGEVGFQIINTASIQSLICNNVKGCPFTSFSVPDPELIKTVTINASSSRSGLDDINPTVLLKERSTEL

[23] = as §1; type: ADME, organism-based; conditions: in vivo, read-out: Vss
[24] = Clearance in rat; type: ADME, organism-based; conditions: in vivo
[25] = as §2; type: ADME, organism-based; conditions: in vivo
[26] = molecular target: T1, Prostaglandin D2 receptor 2 (Homo sapiens); test: Activity at CRTh2 measured as calcium flux changes in HEK293 cells by FLIPR; type: functional, cell-based

Sequence of Voltage-gated inwardly rectifying potassium channel KCNH2 (Q12809 whole entry): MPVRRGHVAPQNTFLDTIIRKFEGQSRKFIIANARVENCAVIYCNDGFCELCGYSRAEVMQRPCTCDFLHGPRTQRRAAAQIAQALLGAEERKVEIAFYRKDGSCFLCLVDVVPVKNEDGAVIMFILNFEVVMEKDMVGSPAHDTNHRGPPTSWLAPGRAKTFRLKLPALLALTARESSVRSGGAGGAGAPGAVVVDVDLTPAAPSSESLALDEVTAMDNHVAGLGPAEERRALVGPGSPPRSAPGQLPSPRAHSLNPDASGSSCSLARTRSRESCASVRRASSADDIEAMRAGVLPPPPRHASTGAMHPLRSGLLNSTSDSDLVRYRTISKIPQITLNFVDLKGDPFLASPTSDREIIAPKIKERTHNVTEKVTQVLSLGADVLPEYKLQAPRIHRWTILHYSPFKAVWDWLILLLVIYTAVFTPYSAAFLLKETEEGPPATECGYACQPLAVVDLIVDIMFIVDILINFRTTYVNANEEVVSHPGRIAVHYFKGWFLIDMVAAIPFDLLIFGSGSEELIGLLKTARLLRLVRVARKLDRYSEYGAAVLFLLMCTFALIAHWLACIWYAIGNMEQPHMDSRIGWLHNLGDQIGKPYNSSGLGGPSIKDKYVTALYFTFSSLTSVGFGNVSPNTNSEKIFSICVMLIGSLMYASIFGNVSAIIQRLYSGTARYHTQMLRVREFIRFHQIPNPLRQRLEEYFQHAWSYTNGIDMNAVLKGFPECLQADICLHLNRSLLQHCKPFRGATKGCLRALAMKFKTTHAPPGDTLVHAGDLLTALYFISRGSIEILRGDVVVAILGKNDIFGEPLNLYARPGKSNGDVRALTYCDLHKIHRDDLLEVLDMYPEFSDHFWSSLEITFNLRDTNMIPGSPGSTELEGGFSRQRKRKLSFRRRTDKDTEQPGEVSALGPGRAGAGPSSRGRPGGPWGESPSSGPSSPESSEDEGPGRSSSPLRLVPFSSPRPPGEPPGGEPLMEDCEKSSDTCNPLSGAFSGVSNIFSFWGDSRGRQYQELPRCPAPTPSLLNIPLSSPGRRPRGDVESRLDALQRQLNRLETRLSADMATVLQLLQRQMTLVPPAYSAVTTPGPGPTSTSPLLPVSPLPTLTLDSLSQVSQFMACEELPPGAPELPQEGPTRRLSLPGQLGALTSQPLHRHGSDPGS
Sequence of Prostaglandin G/H synthase 1 (P23219 whole entry): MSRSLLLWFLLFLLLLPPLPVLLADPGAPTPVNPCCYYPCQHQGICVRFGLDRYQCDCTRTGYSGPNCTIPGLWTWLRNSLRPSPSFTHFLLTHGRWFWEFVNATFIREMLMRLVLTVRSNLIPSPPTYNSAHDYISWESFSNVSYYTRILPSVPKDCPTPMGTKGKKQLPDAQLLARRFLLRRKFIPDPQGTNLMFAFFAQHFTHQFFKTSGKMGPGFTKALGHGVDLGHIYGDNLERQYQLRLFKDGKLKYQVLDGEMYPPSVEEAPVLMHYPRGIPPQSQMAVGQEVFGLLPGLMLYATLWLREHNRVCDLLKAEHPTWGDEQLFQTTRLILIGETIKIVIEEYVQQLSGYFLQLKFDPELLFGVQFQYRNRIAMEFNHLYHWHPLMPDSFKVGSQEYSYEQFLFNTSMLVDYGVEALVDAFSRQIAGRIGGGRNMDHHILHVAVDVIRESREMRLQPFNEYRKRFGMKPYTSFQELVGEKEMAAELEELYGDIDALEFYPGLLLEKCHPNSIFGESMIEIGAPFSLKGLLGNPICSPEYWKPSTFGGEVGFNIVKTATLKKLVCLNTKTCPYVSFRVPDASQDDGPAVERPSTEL
Sequence of Cytochrome P450 2C19 (P33261 whole entry): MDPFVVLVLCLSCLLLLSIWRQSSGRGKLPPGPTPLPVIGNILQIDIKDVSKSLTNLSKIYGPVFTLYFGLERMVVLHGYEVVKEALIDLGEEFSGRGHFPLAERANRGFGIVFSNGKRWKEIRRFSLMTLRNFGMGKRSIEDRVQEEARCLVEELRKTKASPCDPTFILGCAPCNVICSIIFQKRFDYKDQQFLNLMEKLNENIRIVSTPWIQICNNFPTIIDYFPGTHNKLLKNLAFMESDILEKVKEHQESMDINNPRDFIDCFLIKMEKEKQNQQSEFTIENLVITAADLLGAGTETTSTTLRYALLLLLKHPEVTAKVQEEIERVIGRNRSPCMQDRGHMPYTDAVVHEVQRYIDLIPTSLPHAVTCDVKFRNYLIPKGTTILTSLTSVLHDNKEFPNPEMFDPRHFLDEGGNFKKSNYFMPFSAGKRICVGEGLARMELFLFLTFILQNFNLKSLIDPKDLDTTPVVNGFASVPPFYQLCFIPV
Sequence of Sodium-dependent serotonin transporter (P31652 whole entry): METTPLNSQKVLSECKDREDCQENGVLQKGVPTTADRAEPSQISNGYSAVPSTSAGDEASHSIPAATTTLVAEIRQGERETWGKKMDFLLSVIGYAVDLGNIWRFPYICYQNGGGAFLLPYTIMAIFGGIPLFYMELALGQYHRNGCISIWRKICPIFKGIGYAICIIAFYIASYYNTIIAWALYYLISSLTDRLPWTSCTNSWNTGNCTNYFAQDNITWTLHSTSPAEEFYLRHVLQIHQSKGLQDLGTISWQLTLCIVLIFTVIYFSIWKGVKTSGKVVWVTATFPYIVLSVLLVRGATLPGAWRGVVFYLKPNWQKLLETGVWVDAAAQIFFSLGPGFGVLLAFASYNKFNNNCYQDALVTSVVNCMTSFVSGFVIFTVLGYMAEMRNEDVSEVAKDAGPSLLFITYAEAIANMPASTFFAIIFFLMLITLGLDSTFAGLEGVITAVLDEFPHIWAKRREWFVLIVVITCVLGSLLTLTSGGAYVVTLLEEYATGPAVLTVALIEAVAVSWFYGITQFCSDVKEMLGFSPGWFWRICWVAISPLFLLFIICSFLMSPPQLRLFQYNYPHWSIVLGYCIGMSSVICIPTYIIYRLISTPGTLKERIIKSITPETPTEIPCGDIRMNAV
Sequence of Cytochrome P450 2C9 (P11712 whole entry): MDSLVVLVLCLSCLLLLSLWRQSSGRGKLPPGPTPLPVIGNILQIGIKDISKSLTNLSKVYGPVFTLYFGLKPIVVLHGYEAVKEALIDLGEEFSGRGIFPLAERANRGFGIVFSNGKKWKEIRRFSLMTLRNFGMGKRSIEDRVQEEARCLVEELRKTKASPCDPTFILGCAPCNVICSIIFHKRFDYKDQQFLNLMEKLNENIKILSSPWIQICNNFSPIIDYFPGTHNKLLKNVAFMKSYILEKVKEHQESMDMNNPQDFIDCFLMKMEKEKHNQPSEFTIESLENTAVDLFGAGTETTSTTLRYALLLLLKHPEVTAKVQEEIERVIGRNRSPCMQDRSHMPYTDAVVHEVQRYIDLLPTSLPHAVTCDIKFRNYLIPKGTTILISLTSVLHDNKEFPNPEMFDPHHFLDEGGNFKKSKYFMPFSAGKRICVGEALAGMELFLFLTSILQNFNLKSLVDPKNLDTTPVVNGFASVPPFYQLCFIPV

SMILES | Activity [1] [µM] | Activity [2] | Activity [3] [µM] | IC50 [4] [nM] | logD [5] | fraction unbound [6] | hepatocyte CLint [7] [µL/min/1e6 cells] | hepatocyte CLint [8] [µL/min/1e6 cells] | further results
Cc1ccc2c(c1)c(-c1ccnc3cc(C(F)(F)F)ccc13)c(C)n2CC(=O)O | > 6 | inactive | > 6 | 5.4 | 1.8 | 0.004 | – | – | –
Cc1ccc2c(c1)c(-c1ccnc3c(C)cccc13)c(C)n2CC(=O)O | > 6 | inactive | > 6 | 2.6 | – | – | 1.9 | 5.5 | Vss [9]: 1.4 L/kg; T1/2 [10]: 1.7 h; bioavailability [11]: 76%; fraction unbound [12]: 0.02; clearance [13]: 1 mL/min/kg; bioavailability [14]: 100%; half-life [15]: 318 min; Vd [16]: 0.2 L/kg; IC50 [17]: 2500 nM; IC50 [18]: 5 µM; IC50 [19]: 150 nM; IC50 [20]: 2000 nM; IC50 [21]: 3000 nM; IC50 [22]: 3 µM
Cc1ccc2c(c1)c(-c1ccnc3ccccc13)c(C)n2CC(=O)O | > 6 | inactive | > 6 | 21 | – | – | 3 | 10.7 | –
COc1ccc2c(c1)c(-c1ccnc3cc(Cl)ccc13)c(C)n2CC(=O)O | > 6 | inactive | > 6 | 50 | – | 0.003 | – | 5 | –
Cc1ccc2c(c1)c(-c1ccnc3c(S(C)(=O)=O)cccc13)c(C)n2CC(=O)O | > 6 | inactive | > 6 | 23 | 0.3 | 0.064 | – | – | bioavailability [14]: 5%
Cc1ccc2c(c1)c(-c1ccnc3c(C(F)(F)F)cccc13)c(C)n2CC(=O)O | > 6 | inactive | > 6 | 6 | 1.3 | 0.004 | – | – | –
COc1ccc2c(c1)c(CC(=O)O)c(C)n2-c1ccnc2cc(Cl)ccc12 | > 6 | inactive | > 6 | 180 | 1.7 | – | 1.4 | 6.5 | Vd [23]: 2.3 L/kg; clearance [24]: 11 mL/min/kg; half-life [25]: 132 min; bioavailability [11]: 62%; IC50 [17]: 1600 nM; Activity ([26]; filed as antagonist): Antagonist
Cc1ccc2c(c1)c(-c1ccnc3ccc(C(F)(F)F)cc13)c(C)n2CC(=O)O | > 6 | inactive | > 6 | 68 | 1.8 | – | – | 16 | –
Cc1c(CC(=O)O)c2ccccc2n1-c1ccncn1 | > 6 | inactive | > 6 | 5200 | – | – | – | – | Activity ([26]; filed as partial agonist): Partial agonist
Cc1ccc2c(c1)c(-c1ccnc3cc(Cl)ccc13)c(C)n2CC(=O)O | > 6 | inactive | > 6 | 8 | 1.6 | 0.002 | 3.8 | 6 | Vd [23]: 1.4 L/kg; clearance [24]: 6 mL/min/kg; half-life [25]: 402 min; fraction unbound [12]: 0.02; IC50 [21]: 400 nM
Cc1ccc2c(c1)c(-c1ccnc3c(C#N)cccc13)c(C)n2CC(=O)O | > 6 | inactive | > 6 | 18 | – | – | – | < 3 | –
Cc1ccc2c(c1)c(-c1ccnc3c(Cl)cccc13)c(C)n2CC(=O)O | > 6 | inactive | > 6 | 2.3 | 1.3 | 0.006 | 2 | < 3 | half-life [15]: 144 min
Cc1ccc2c(c1)c(-c1cc(C)nc3ccccc13)c(C)n2CC(=O)O | > 6 | inactive | > 6 | 18 | 2.9 | 0.004 | – | 5 | –
Cc1ccc2c(c1)c(-c1ccnc3c(F)cccc13)c(C)n2CC(=O)O | > 6 | inactive | > 6 | 7.1 | 0.5 | 0.009 | 1.6 | < 1 | –
Cc1ccc2c(-c3ccnc4cc(Cl)ccc34)c(C)n(CC(=O)O)c2c1 | > 6 | inactive | > 6 | 125 | – | – | – | – | –
COc1cccc2c(-c3c(C)n(CC(=O)O)c4ccc(C)cc34)ccnc12 | > 6 | inactive | > 6 | 11 | 0.5 | – | – | 7 | bioavailability [14]: 13%
